Results on one compound are retold here after patent publication US4650855A, “Glycopeptide antibiotic L 17046” (Gruppo Lepetit S.p.A., priority 1983, dated 1987).

Data set [1] deals with S. saprophyticus L 1141. Description: MIC against clinical isolates of coagulase-negative staphylococci. The data set is classed as cell-based. Particulars: clinical isolate. On the procedure: (§1) Isosensitest broth (Oxoid) and Todd-Hewitt broth (Difco) were used for Staphylococci and Streptococci, respectively. Broth cultures were diluted so that the final inoculum was about 10^4 colony forming units/ml (CFU/ml).
(§2) Its MICs […] against some clinical isolates of the above microbial strains are listed below in Table II: […]

The test system of data set [2] is S. epidermidis L 1142. Described as above. The conditions noted are these: clinical isolate, methicillin-resistant strain. The data set is classed as cell-based. On the procedure: as §1, §2
The subject of data set [3] is S. epidermidis L 835. The data set is described as above. The data set is classed as cell-based. The conditions noted are these: clinical isolate, methicillin-resistant strain. On the procedure:
as §1, §2

In data set [4] the test system is S. epidermidis L 1378. The data set is described as above. The data set is classed as cell-based. The conditions noted are these: clinical isolate. On the procedure: as §1, §2
Data set [5] relates to S. epidermidis L 785. Described as above. Particulars: clinical isolate, methicillin-resistant strain. The data set is classed as cell-based. On the procedure:
as §1, §2

Data set [6] concerns mice. Kind of data set: Approximate acute toxicity in mice. The data set is classed as in vivo. Particulars: acute toxicity (i.p.), administered by i.m. route as printed.
A short description of data set [7]: Potentiometric titration profile. The data set is classed as physicochemical. The conditions noted are these: methylcellosolve:water 4:1, titration with 0.01 N NaOH after excess 0.01 N HCl.
For data set [8], the system named is coagulase-negative staphylocci (S. epidermidis, S. saprophyticus). Description: Effectiveness against coagulase-negative staphylococci. The data set is classed as cell-based.
Excerpt: as §2

Data set [9] deals with Streptococcus faecalis ATCC 7080. Kind of data set: In vitro antibacterial activity, two-fold dilution method in microtiter system (MIC). The data set is classed as cell-based. The conditions noted are these: Todd-Hewitt broth, inoculum about 10^4 CFU/ml, 18-24 h at 37° C. On the procedure:
as §1

The subject of data set [10] is Staphylococcus aureus ATCC 6538. The data set is described as above. The data set is classed as cell-based. The conditions noted are these: Isosensitest broth, inoculum about 10^4 CFU/ml, 18-24 h at 37° C. On the procedure: as §1
The subject of data set [11] is Streptococcus dysgalactiae ATCC 9926. The description is as above. The conditions noted are these: Todd-Hewitt broth, inoculum about 10^4 CFU/ml, 18-24 h at 37° C. The data set is classed as cell-based. On the procedure: as §1
Data set [12] concerns Staphylococcus epidermidis ATCC 12228. The description is as above. The data set is classed as cell-based. The conditions noted are these: Isosensitest broth, inoculum about 10^4 CFU/ml, 18-24 h at 37° C. On the procedure:
as §1

Data set [13] deals with Streptococcus pneumoniae UC 41. The description is as above. The data set is classed as cell-based. The conditions noted are these: Todd-Hewitt broth, inoculum about 10^4 CFU/ml, 18-24 h at 37° C. On the procedure:
as §1

In data set [14] the test system is Streptococcus pyogenes C 203. Described as above. The data set is classed as cell-based. Particulars: Todd-Hewitt broth, inoculum about 10^4 CFU/ml, 18-24 h at 37° C. On the procedure:
as §1

Data set [15] has as its system gram-positive bacteria. Description: In vitro antibacterial activity, spectrum. The data set is classed as cell-based. On the procedure:
as §1

The subject of data set [16] is Staplylococcus aureus Tour. Description: In vitro antibacterial activity, two-fold dilution method in microtiter system (MIC). The data set is classed as cell-based, Staphylococcus aureus. On the procedure: as §1
The nature of data set [17]: Solubility. The data set is classed as physicochemical.

The structures appear in SMILES notation. Converted amounts (≈) assume the structure as drawn.

As for `CC(=O)N[C@@H]1[C@@H](O[C@H]2c3ccc(c(Cl)c3)Oc3cc4cc(c3O)Oc3ccc(cc3Cl)C[C@@H]3NC(=O)[C@@H](N)c5ccc(O)c(c5)Oc5cc(O)cc(c5)[C@@H](NC3=O)C(=O)N[C@@H]4C(=O)N[C@@H]3C(=O)N[C@H]2C(=O)N[C@@H](C(=O)O)c2cc(O)cc(O)c2-c2cc3ccc2O)O[C@@H](CO)[C@H](O)[C@H]1O` (stereo in doubt) [antibiotic L 17046], the MIC (as a rule, the least concentration at which growth counts as inhibited) in data set [1] turned out to be 0.1 µg/mL (≈ 0.0713 µM); in [2], 0.1 µg/mL (≈ 0.0713 µM); in data set [3] it was 0.1 µg/mL (≈ 0.0713 µM); in [4], 0.05 µg/mL (≈ 0.0357 µM); in data set [5], 0.05 µg/mL (≈ 0.0357 µM); in data set [9] it was 1.6 µg/mL (≈ 1.14 µM). Further, the MIC in data set [10] amounted to 0.2 µg/mL (≈ 0.143 µM); in [11], 0.8 µg/mL (≈ 0.571 µM); in [12] it was 0.05 µg/mL (≈ 0.0357 µM); in [13], 1.6 µg/mL (≈ 1.14 µM); in data set [14] it was 1.6 µg/mL (≈ 1.14 µM); in data set [16] (Isosensitest broth + 30% bovine serum) it was 0.4 µg/mL. This compound also yielded an MIC in data set [16] (Isosensitest broth, inoculum about 10^4 CFU/ml, 18-24 h at 37° C.) of 0.2 µg/mL (≈ 0.143 µM). Besides, the “approximate LD50” value in data set [6] is “about 850 mg/kg”. The “pH1/2 value, third titration slope” value in data set [7] (five equivalents) is on record as 11. In addition, in data set [7] (one equivalent), the “pH1/2 value, first titration slope” value stood at 5.0. For the same compound, in [7] (one equivalent), the “pH1/2 value, second titration slope” value amounted to 7.0. The “effectiveness against coagulase-negative staphylococci” value in [8] is on record as “particularly effective”. In addition, the “in vitro antibacterial activity (spectrum)” value in [15] is reported as “mainly active against gram-positive bacteria”. Further, the solubility entry in data set [17] (in highly concentrated mineral acids) was “insoluble”; in data set [17] (in methanol), “sligltly soluble”; in data set [17] (in water at pH>8.0, dimethylformamide, dimethylsulfoxide, propyleneglycol and methylcellosolve), “freely soluble”.
